Usually mass density stands for mass per unit of volume.

± gives the expanded uncertainty stated by the source.

For the series the following is noted: 293.15 K; 101.33 kPa; Liquid; Other PVT measurement.

On to `C1CCC(C2CCCCC2)CC1` [1,1'-bicyclohexyl], for which the mass density stood at 890 ± 10 kg/m3.

On to `CCCC1CCCCC1` [1-cyclohexylpropane], for which the mass density was found to be 790 ± 10 kg/m3.

With `c1ccccc1` [benzene], the mass density amounted to 877 ± 10 kg/m3.

In the case of `C1CCCCC1` [cyclohexane], the mass density amounted to 778 ± 10 kg/m3.

For the compound `c1ccc(C2CCCCC2)cc1` [cyclohexylbenzene], the mass density is listed as 940 ± 10 kg/m3.

In the case of `CCCCCCCCCCCC` [dodecane], the mass density is on record as 753 ± 10 kg/m3.

For the compound `CCCCCCCCCCCCCCCC` [hexadecane], the mass density is recorded as 773 ± 10 kg/m3.

For `CCCCCC` [hexane], the mass density amounted to 659 ± 10 kg/m3.

In the case of `CCCCCCC1CCCCC1` [hexylcyclohexane], the mass density came out at 810 ± 10 kg/m3.

As to `CCCCCCCCC` [nonane], the mass density is 718 ± 10 kg/m3.

Consider `CCCCCCCCCCCCCC` [tetradecane], for which the mass density worked out at 767 ± 10 kg/m3.

The values are drawn from the NIST ThermoML archive (doi:10.1016/j.fluid.2017.02.010).
